In patent US11419852B2, “Beta-lactam compounds or salts thereof for use in long-acting prevention or treatment of a glucose metabolism disorder” (GLYCOLYSIS BIOMED CO., LTD., priority 2019, dated 2022):
Marks after values point to notes of the source that are not given here.

What was measured:
Assay type in all cases: in vivo
[1] = system: db/db mice; experiment: Fasting plasma glucose (FPG) measurement; conditions: for Average FPG level: dosing 6 weeks
Experimental: Four to five weeks old db/db mice (BKS.Cg-Dock7^m+/+Lepr^db/JNarl) and m/m mice (BKS.Cg-Dock7^m+/Dock7^m+) were obtained from National Laboratory Animal Center (Nangang, Taipei, Taiwan). These animals were maintained in a facility with a 12-h dark-light cycle at 24±2° C. and 65±5% humidity and were provided food (No. 5001; PMI Nutrition International, Brentwood, Mo.) and water ad libitum. For experiments, the average body weight of m/m mice was approximately 20 g, and that of db/db mice was approximately 30 g.
For each mouse, blood was sampled from the tail vein and measured for FPG levels using a blood glucose meter (OneTouch UltraEasy, Johnson & Johnson, USA) at a predestined time point.

[2] = system: db/db mice; experiment: Plasma biochemical parameters (AST, ALT, BUN, Cr, HbA1c)
Experimental: Inflammatory markers such as serum aspartate aminotransferase (AST), alanine aminotransferase (ALT), blood urea nitrogen (BUN), creatinine (Cr), and hemoglobin Alc (HbAlc) were measured using a BMC-Hitachi 717 chemistry auto analyzer.

[3] = Body weight of mice recorded weekly; conditions: for Body weight: dosing 6 weeks
Experimental: Four to five weeks old db/db mice (BKS.Cg-Dock7^m+/+Lepr^db/JNarl) and m/m mice (BKS.Cg-Dock7^m+/Dock7^m+) were obtained from National Laboratory Animal Center ([…], Taiwan). […] PMI Nutrition International, Brentwood, Mo.) and water ad libitum. […] The mouse body weight (bw) and the amounts of water and food intake were recorded weekly for the entire study period.

[4] = Ex 2 G4 db/db, DMH i.p. 0.1 mg/g bw/day, week 3
[5] = Ex 2 G4 db/db, DMH i.p. 0.1 mg/g bw/day, week 6
[6] = Ex 2 G4 db/db, DMH i.p. 0.1 mg/g bw/day, week 9
[7] = Ex 2 G4 db/db, DMH i.p. 0.1 mg/g bw/day, week 12
[8] = Ex 2 G4 db/db, DMH i.p. 0.1 mg/g bw/day, week 16
[9] = Ex 2 G4 db/db, DMH i.p. 0.1 mg/g bw/day, week 18
[10] = Ex 2 G5 db/db, DMH i.p. 0.2 mg/g bw/day, week 3
[11] = Ex 2 G5 db/db, DMH i.p. 0.2 mg/g bw/day, week 6
[12] = Ex 2 G5 db/db, DMH i.p. 0.2 mg/g bw/day, week 9
[13] = Ex 2 G5 db/db, DMH i.p. 0.2 mg/g bw/day, week 12
[14] = Ex 2 G5 db/db, DMH i.p. 0.2 mg/g bw/day, week 16
[15] = Ex 2 G5 db/db, DMH i.p. 0.2 mg/g bw/day, week 18
[16] = Ex 2 G6 db/db, DMH i.p. 0.4 mg/g bw/day, week 3
[17] = Ex 2 G6 db/db, DMH i.p. 0.4 mg/g bw/day, week 6
[18] = Ex 2 G6 db/db, DMH i.p. 0.4 mg/g bw/day, week 9
[19] = Ex 2 G6 db/db, DMH i.p. 0.4 mg/g bw/day, week 12
[20] = Ex 1: db/db mice, ertapenem i.p. 0.41 mg/g bw/day, week 3
[21] = Ex 3, after the treatments had been stopped for 6 weeks
[22] = Ex 3: db/db mice, daily dosing 3 weeks at doses of Table 10, week 9

C[C@@H](O)[C@H]1C(=O)N2C(C(=O)O)=C(S[C@@H]3CN[C@H](C(=O)Nc4cccc(C(=O)O)c4)C3)[C@H](C)[C@H]12 [DMH, ertapenem]
Duration of blood-glucose-lowering effect after treatment was stopped ([1]; Ex 2, db/db mice): at least 6 weeks
Lowering blood glucose levels (FPG) in db/db mice ([1]; Ex 2, week 3, 0.1 mg/g bw and 0.4 mg/g bw vs metformin 0.3 mg/g bw): as effective as metformin
Average FPG level ([1]; Ex 2 G4 db/db, DMH i.p. 0.1 mg/g bw/day, week 0): 139 ± 21^b
Average FPG level [1, 4]: 134 ± 21^b
Average FPG level [1, 5]: 219 ± 36^b
Average FPG level [1, 6]: 217 ± 37^bc
Average FPG level [1, 7]: 154 ± 30^ab
Average FPG level [1, 8]: 126 ± 43^ab
Average FPG level [1, 9]: 263 ± 58^b
Average FPG level ([1]; Ex 2 G5 db/db, DMH i.p. 0.2 mg/g bw/day, week 0): 142 ± 20^b
Average FPG level [1, 10]: 158 ± 25^bc
Average FPG level [1, 11]: 166 ± 21^b
Average FPG level [1, 12]: 212 ± 30^bc
Average FPG level [1, 13]: 191 ± 42^bc
Average FPG level [1, 14]: 154 ± 56^ab
Average FPG level [1, 15]: 308 ± 51^b
Average FPG level ([1]; Ex 2 G6 db/db, DMH i.p. 0.4 mg/g bw/day, week 0): 141 ± 23^b
Average FPG level [1, 16]: 121 ± 23^ab
Average FPG level [1, 17]: 175 ± 30^b
Average FPG level [1, 18]: 172 ± 27^b
Average FPG level [1, 19]: 166 ± 26^ac
Average FPG level ([1]; Ex 2 G6 db/db, DMH i.p. 0.4 mg/g bw/day, week 16): 108 ± 22^ab
Average FPG level ([1]; Ex 2 G6 db/db, DMH i.p. 0.4 mg/g bw/day, week 18): 266 ± 35^b
Levels of AST, ALT, BUN, and HbA1c in the diabetes mice ([2]; Ex 1, week 3): significantly reduced
ALT [2, 20]: 34 ± 6 U/L
AST [2, 20]: 61 ± 7 U/L
BUN [2, 20]: 27 ± 2 mg/dL
Creatinine [2, 20]: 0.57 ± 0.02 mg/dL
HbA1c [2, 20]: 6.1 ± 0.8 %
Level of ALT [2, 21]: reduce
Level of AST [2, 21]: reduce
Level of HbA1c [2, 21]: reduce
ALT [2, 22]: 79 ± 8^bc U/L
AST [2, 22]: 127 ± 13^ad U/L
BUN [2, 22]: 44 + 2^d mg/dL
Creatinine [2, 22]: 0.467 ± 0.01^bd mg/dL
HbA1c [2, 22]: 5.8 ± 0.3^d %
Effect on body weight in db/db mice ([3]; Ex 2, 0.1 mg/g bw and 0.4 mg/g bw): positive effects of body weight lowering
Body weight ([3]; Ex 2 G3 db/db, 0.3 mg/g bw/day (row printed 0.3 DMH), week 14): 43.94 ± 1.54^b
Body weight ([3]; Ex 2 G3 db/db, 0.3 mg/g bw/day (row printed 0.3 DMH), week 15): 46.46 ± 1.39^b
Body weight ([3]; Ex 2 G3 db/db, 0.3 mg/g bw/day (row printed 0.3 DMH), week 16): 47.68 ± 1.32^b
Body weight ([3]; Ex 2 G3 db/db, 0.3 mg/g bw/day (row printed 0.3 DMH), week 17): 48.31 ± 1.38^b
Body weight ([3]; Ex 2 G3 db/db, 0.3 mg/g bw/day (row printed 0.3 DMH), week 18): 49.57 ± 1.47^b
Body weight ([3]; Ex 2 G3 db/db, 0.3 mg/g bw/day (row printed 0.3 DMH), week 19): 51.98 ± 1.66^b
Body weight ([3]; Ex 2 G4 db/db, DMH i.p. 0.1 mg/g bw/day, Baseline): 29.44 ± 2.09^b
Body weight ([3]; Ex 2 G4 db/db, DMH i.p. 0.1 mg/g bw/day, week 1): 29.21 ± 2.01^b
Body weight ([3]; Ex 2 G4 db/db, DMH i.p. 0.1 mg/g bw/day, week 2): 29.95 ± 1.79^b
Body weight [3, 4]: 32.38 ± 1.38^b
Body weight ([3]; Ex 2 G4 db/db, DMH i.p. 0.1 mg/g bw/day, week 4): 33.49 ± 1.13^b
Body weight ([3]; Ex 2 G4 db/db, DMH i.p. 0.1 mg/g bw/day, week 5): 35.72 ± 1.01^b
Body weight [3, 5]: 36.73 ± 0.95^b
Body weight ([3]; Ex 2 G4 db/db, DMH i.p. 0.1 mg/g bw/day, week 7): 36.68 ± 0.83^b
Body weight ([3]; Ex 2 G4 db/db, DMH i.p. 0.1 mg/g bw/day, week 8): 37.83 ± 0.77^b
Body weight [3, 6]: 38.46 ± 0.8^b
Body weight ([3]; Ex 2 G4 db/db, DMH i.p. 0.1 mg/g bw/day, week 10): 39.43 ± 0.81^b
Body weight ([3]; Ex 2 G4 db/db, DMH i.p. 0.1 mg/g bw/day, week 11): 40.86 ± 0.82^b
Body weight [3, 7]: 42.59 ± 0.87^b
Body weight ([3]; Ex 2 G4 db/db, DMH i.p. 0.1 mg/g bw/day, week 13): 44.21 ± 0.99^b
Body weight ([3]; Ex 2 G4 db/db, DMH i.p. 0.1 mg/g bw/day, week 14): 43.56 ± 1.08^b
Body weight ([3]; Ex 2 G4 db/db, DMH i.p. 0.1 mg/g bw/day, week 15): 45.90 ± 1.18^b
Body weight [3, 8]: 46.80 ± 1.29^b
Body weight ([3]; Ex 2 G4 db/db, DMH i.p. 0.1 mg/g bw/day, week 17): 47.21 ± 1.26^b
Body weight [3, 9]: 48.14 ± 1.23^b
Body weight ([3]; Ex 2 G4 db/db, DMH i.p. 0.1 mg/g bw/day, week 19): 50.91 ± 1.22^b
Body weight ([3]; Ex 2 G5 db/db, DMH i.p. 0.2 mg/g bw/day, Baseline): 31.70 ± 1.46^b
Body weight ([3]; Ex 2 G5 db/db, DMH i.p. 0.2 mg/g bw/day, week 1): 31.31 ± 1.48^b
Body weight ([3]; Ex 2 G5 db/db, DMH i.p. 0.2 mg/g bw/day, week 2): 31.81 ± 1.12^bc
Body weight [3, 10]: 34.36 ± 0.75^bc
Body weight ([3]; Ex 2 G5 db/db, DMH i.p. 0.2 mg/g bw/day, week 4): 35.55 ± 0.61^bc
Body weight ([3]; Ex 2 G5 db/db, DMH i.p. 0.2 mg/g bw/day, week 5): 37.76 ± 0.49^bc
Body weight [3, 11]: 39.06 ± 0.54^bc
Body weight ([3]; Ex 2 G5 db/db, DMH i.p. 0.2 mg/g bw/day, week 7): 39.07 ± 0.45^bc
Body weight ([3]; Ex 2 G5 db/db, DMH i.p. 0.2 mg/g bw/day, week 8): 39.99 ± 0.39^bc
Body weight [3, 12]: 40.63 ± 0.27^bcd
Body weight ([3]; Ex 2 G5 db/db, DMH i.p. 0.2 mg/g bw/day, week 10): 41.39 ± 0.29^b
Body weight ([3]; Ex 2 G5 db/db, DMH i.p. 0.2 mg/g bw/day, week 11): 42.98 ± 0.35^b
Body weight [3, 13]: 44.66 ± 0.38^b
Body weight ([3]; Ex 2 G5 db/db, DMH i.p. 0.2 mg/g bw/day, week 13): 46.52 ± 0.45^b
Body weight ([3]; Ex 2 G5 db/db, DMH i.p. 0.2 mg/g bw/day, week 14): 46.10 ± 0.51^b
Body weight ([3]; Ex 2 G5 db/db, DMH i.p. 0.2 mg/g bw/day, week 15): 48.58 ± 0.55^b
Body weight [3, 14]: 49.65 ± 0.63^b
Body weight ([3]; Ex 2 G5 db/db, DMH i.p. 0.2 mg/g bw/day, week 17): 49.96 ± 0.68^b
Body weight [3, 15]: 50.71 ± 0.87^b
Body weight ([3]; Ex 2 G5 db/db, DMH i.p. 0.2 mg/g bw/day, week 19): 52.73 ± 1.04^b
Body weight ([3]; Ex 2 G6 db/db, DMH i.p. 0.4 mg/g bw/day, Baseline): 31.61 ± 1.03^b
Body weight ([3]; Ex 2 G6 db/db, DMH i.p. 0.4 mg/g bw/day, week 1): 31.23 ± 0.98^b
Body weight ([3]; Ex 2 G6 db/db, DMH i.p. 0.4 mg/g bw/day, week 2): 31.62 ± 0.77^bc
Body weight [3, 16]: 33.98 ± 0.54^b
Body weight ([3]; Ex 2 G6 db/db, DMH i.p. 0.4 mg/g bw/day, week 4): 34.29 ± 0.59^b
Body weight ([3]; Ex 2 G6 db/db, DMH i.p. 0.4 mg/g bw/day, week 5): 36.44 ± 0.71^b
Body weight [3, 17]: 37.16 ± 0.8^b
Body weight ([3]; Ex 2 G6 db/db, DMH i.p. 0.4 mg/g bw/day, week 7): 37.16 ± 0.93^b
Body weight ([3]; Ex 2 G6 db/db, DMH i.p. 0.4 mg/g bw/day, week 8): 38.67 ± 1.24^b
Body weight [3, 18]: 39.72 ± 1.36^bc
Body weight ([3]; Ex 2 G6 db/db, DMH i.p. 0.4 mg/g bw/day, week 10): 40.81 ± 1.34^b
Body weight ([3]; Ex 2 G6 db/db, DMH i.p. 0.4 mg/g bw/day, week 11): 42.61 ± 1.31^b
Body weight [3, 19]: 44.54 ± 1.63^b
Body weight ([3]; Ex 2 G6 db/db, DMH i.p. 0.4 mg/g bw/day, week 13): 45.69 ± 1.86^b
